Measured values as given in patent US20120065228A1, “COMPOSITIONS AND METHODS FOR TREATING, CONTROLLING, REDUCING, OR AMELIORATING OCULAR INFLAMMATORY WITH LOWER RISK OF INCREASED INTRAOCULAR PRESSURE” (priority 2007, published 2012).
Values joined by “and” are separate entries in the source; they are usually repeats but may differ in a detail not shown here. Equal entries are not always repeated. Where two headings read alike, the source gives them in different places.

Experiments:
Assay type in all cases: in vivo
rabbit eye [1] = test: Clinical evaluation by slit lamp (clinical score), rabbit paracentesis model; set-up: key to Clinical Score −180 min / Clinical Score −5 min / Clinical Score +115 min: 0: normal; 1: discrete dilatation of iris and conjunctival vessels; 2: moderate dilatation of iris and conjunctival vessels; 3: intense iridal hyperemia with flare in the anterior chamber; 4: intense iridal hyperemia with flare in the anterior chamber and presence of fibrinous exudates; settings: for Clinical Score −5 min: 5 min before the first paracentesis; for Clinical Score −5 min / Clinical Score +115 min / Clinical Score −180 min: individual eyes; for Clinical Score +115 min: 5 min before the second paracentesis; for Clinical Score −180 min: basal
[2] = tested on: protein concentration in the aqueous humor; test: Protein measurement in aqueous humor, rabbit paracentesis model; settings: for Protein in aqueous humor, Mean / Protein in aqueous humor: second paracentesis; for Protein in aqueous humor: individual eyes
Experimental: (§1) Each rabbit was placed in a restraint device and tagged with the alphanumeric code. The formulations were instilled (50 μl) into the conjunctival sac of both eyes 180, 120, 90 and 30 min before the first paracentesis; then 15, 30, 90 min after the first paracentesis. To perform the first paracentesis the animals were anaesthetized by intravenous injection of 5 mg/kg Zoletil® (Virbac; 2.5 mg/kg tiletamine HCl and 2.5 mg/kg zolazepam HCl) and one drop of local anesthetic (Novesina®, Novartis) was administered to the eye. Anterior chamber paracentesis was performed with a 26 G needle attached to a tuberculin syringe; the needle was introduced into the anterior chamber through the cornea, taking care not to damage the tissues. Two hours after the ® first paracentesis, the animals were sacrificed with 0.4 ml Tanax® (Intervet International B.V.) and the second paracentesis was performed. About 100 μl of aqueous humor were removed at the second paracentesis. Aqueous humor was immediately split in four aliquots and stored at −80° C. until analysis. Then both eyes were enucleated and the iris-ciliary body was carefully excised, placed in polypropylene tubes, and stored at −80° C. until analysis.
For protein concentration determination in the aqueous humor we used the Protein Quantification Kit (Fluka; Cat. No. 77371; Lot. No. 1303129). Five microliters of aqueous humor were diluted to 100 μl with water. Twenty microliters of samples and of standards were load into a 96-well plate and recorded in a plate layout. Samples were treated following the assay procedure described in the kit. A microplate reader (GDV, Italy; model DV 990 B/V6) set at 670 nm was used for making the calibration and analyzing the samples.
(§2) Pupillary diameter, PGE2, protein, PMN, and MPO were expressed as mean±SEM. Statistical analysis was performed using one way ANOVA followed by a Newman-Keuls post hoc test. Clinical score was expressed as % of eyes and the statistical analysis was performed using Kruskal-Wallis followed by a Dunn post hoc test. P<0.05 was considered statistically significant in both cases. Prism 4 software (GraphPad Software, Inc.) was used for the analysis and graphs.

rabbit eye [3] = test: Pupillary diameter measurement, rabbit paracentesis model; settings: individual eyes; for Pupillary diameter T2: −5 min: 5 min before the first paracentesis; for Pupillary diameter T3: +115 min: 5 min before the second paracentesis; for Pupillary diameter Δ(T3 − T1): +115 min minus −180 min; for Pupillary diameter T1: −180 min: basal
Experimental: as §1
The pupillary diameter of both eyes was measured with a Castroviejo caliper 180 min and 5 min before the first paracentesis and 5 min before the second paracentesis.
as §2

[4] = tested on: PGE2 in the aqueous humor; test: Prostaglandin E2 (PGE2) measurement in aqueous humor, rabbit paracentesis model; settings: for PGE2 in aqueous humor, statistical significance versus CTR: p<0.05; for PGE2 in aqueous humor, Mean / PGE2 in aqueous humor: second paracentesis; for PGE2 in aqueous humor: individual eyes
Experimental: as §1
For the quantitative determination of PGE2 in the aqueous humor we used the PGE2 Immunoassay kit (R&D Systems; Cat. No. KGE004; Lot. No. 240010). Eleven microliters or 16 μl of aqueous humor were diluted to 110 μl or 160 μl with the calibrator diluent solution provided with the kit. One hundred microliters of samples and of standards were load into a 96-well plate and recorded in a plate layout. Samples were treated following the assay procedure described in the kit. A microplate reader (GDV, Italy; model DV 990 B/V6) set at 450 nm (wavelength correction at 540 nm) was used for making the calibration and analyzing the samples.
as §2

Myeloperoxidase (MPO) = Myeloperoxidase (MPO) activity in iris-ciliary body, rabbit paracentesis model; settings: for MPO Unit/g: iris-ciliary body samples collected after the second paracentesis, individual eyes (DX/SX); for MPO activity in iris-ciliary body, Mean: after the second paracentesis
Experimental: as §1
The activity of MPO was measured as previously described by Williams et al. The iris-ciliary bodies were carefully dried, weighed and immersed in 1 ml of hexa-decyl-trimethyl-ammonium bromide solution. Then, the samples were sonicated for 10 sec on ice by a ultrasound homogenizer (HD 2070, Bandelin electronic), freeze-thawed three times, sonicated for 10 sec and centrifuged at 14,000 g for 10 min to remove cellular debris. An aliquot of the supernatant (40-200 μl) was diluted to 3 ml with the o-dianisidine 2HCl/H2O2 solution. The change in absorbance at 460 nm was continuously monitored for 5 min by a spectrophotometer (UV/Vis Spectrometer Lambda EZ 201; Perkin Elmer). The slope of the line (Δ/min) was determined for each sample and used to calculate the number of units of MPO in the tissue as follows:
were ε=11.3 mM^−1. Values were expressed as units of MPO/g of tissue.
as §2

leukocytes (PMN) = test: Leukocytes (PMN) measurement in aqueous humor, rabbit paracentesis model; settings: second paracentesis; for PMN in aqueous humor: individual eyes
Experimental: as §1
For the determination of the number of leukocytes we used a haemocytometer (Improved Neubauer Chamber; Bright-line. Hausser Scientific) and a Polyvar 2 microscope (Reichert-Jung).
as §2

[5] = tested on: New Zealand White rabbits
Experimental: On Days 1-31, animals received daily topical doses of the appropriate test article into the right eye. Animals were dosed four times per day, with doses administered 2 hours apart. Doses were administered using a calibrated 50-μL pipette. The eyelids were held close for 10 seconds immediately following dosing. The time of each dose administration was recorded.
Animals determined to be moribund were euthanized with an intravenous injection of commercial euthanasia solution.

[6] = 0.5% topical formulation, +115 min, 8 eyes
[7] = 5 mg/g BOL-303242-X ([…]) topical 4 x daily, individual rabbits, Group C
[8] = 1 mg/g BOL-303242-X (0.05 mg/dose) topical 4 x daily, individual rabbit, Group D

Compound: CC(C(=O)O)c1ccc(-c2ccccc2)c(F)c1 (stereo not drawn) [F, flurbiprofen, reference compound]
- Clinical Score −5 min (rabbit eye [1]; 0.03% topical formulation): 0
- Clinical Score +115 min (rabbit eye [1]; 0.03% topical formulation): 2
- Clinical score as percentage of eyes, Score (%) 2 (rabbit eye [1]; 0.03% topical formulation, +115 min, 8 eyes): 100%
- Clinical Score −180 min (rabbit eye [1]; 0.03% topical formulation): 0
- Clinical score as percentage of eyes, Score (%) 0 (rabbit eye [1]; 0.03% topical formulation, −5 min, 8 eyes): 100%
- Clinical score as percentage of eyes, Score (%) 0 (rabbit eye [1]; 0.03% topical formulation, −180 min (basal), 8 eyes): 100%
- Protein in aqueous humor, statistical significance vs CTR ([2]; 0.03% topical formulation, p<0.001): statistical significance
- Protein in aqueous humor, Mean ([2]; 0.03% topical formulation): 20.910 mg/mL
- Protein in aqueous humor ([2]; 0.03% topical formulation): 20.78 mg/mL and 28.80 mg/mL and 23.41 mg/mL and 20.21 mg/mL and 17.53 mg/mL and 15.12 mg/mL and 20.52 mg/mL
- Pupillary diameter T2: −5 min (rabbit eye [3]; 0.03% topical formulation): 6.0 mm (3×) and 6.5 mm (3×) and 7.0 mm and 5.5 mm
- Pupillary diameter T3: +115 min (rabbit eye [3]; 0.03% topical formulation): 4.0 mm and 3.5 mm and 5.5 mm (2×) and 5.0 mm (2×) and 4.5 mm and 6.0 mm
- Pupillary diameter Δ(T3 − T1) (rabbit eye [3]; 0.03% topical formulation): −1.0 mm (3×) and −1.5 mm (3×) and 0.0 mm (2×)
- Pupillary diameter T1: −180 min (rabbit eye [3]; 0.03% topical formulation): 5.0 mm (2×) and 7.0 mm and 6.0 mm (4×) and 5.5 mm
- PGE2 in aqueous humor, statistical significance versus CTR ([4]; 0.03% topical formulation): statistically significant versus CTR
- PGE2 in aqueous humor, Mean ([4]; 0.03% topical formulation): 1.189 ng/mL
- PGE2 in aqueous humor ([4]; 0.03% topical formulation): 1.04 ng/ml and 0.75 ng/ml and 0.85 ng/ml and 1.11 ng/ml and 2.11 ng/ml (2×) and 0.93 ng/ml and 0.61 ng/ml
- MPO Unit/g (Myeloperoxidase (MPO); 0.03% F): 1.10 Unit/g and 1.70 Unit/g and 0.34 Unit/g and 0.75 Unit/g and 0.74 Unit/g and 0.63 Unit/g and 0.73 Unit/g and 1.27 Unit/g
- MPO activity in iris-ciliary body, Mean (Myeloperoxidase (MPO); 0.03% topical formulation): 0.906 MPO Unit/g
- PMN in aqueous humor, Mean (leukocytes (PMN); 0.03% topical formulation): 30.000 number/μl
- PMN in aqueous humor (leukocytes (PMN); 0.03% topical formulation): 50 number/μl and 40 number/μl (2×) and 20 number/μl (2×) and 10 number/μl and 30 number/μl

Compound: CCOC(=O)O[C@]1(C(=O)OCCl)CC[C@H]2[C@@H]3CCC4=CC(=O)C=C[C@]4(C)[C@H]3[C@@H](O)C[C@@]21C [LE, loteprednol etabonate, reference compound]
- Clinical Score −5 min (rabbit eye [1]; 0.5% topical formulation): 0
- Clinical Score +115 min (rabbit eye [1]; 0.5% topical formulation): 2 (2×) and 1 (6×)
- Clinical score as percentage of eyes, Score (%) 1 (rabbit eye [1]; [6]): 75%
- Clinical score as percentage of eyes, Score (%) 2 (rabbit eye [1]; [6]): 25%
- Clinical Score −180 min (rabbit eye [1]; 0.5% topical formulation): 0
- Clinical score, difference versus CTR (rabbit eye [1]; 0.5% topical formulation, p<0.05): significant difference versus CTR
- Clinical score as percentage of eyes, Score (%) 0 (rabbit eye [1]; 0.5% topical formulation, −5 min, 8 eyes): 100%
- Clinical score as percentage of eyes, Score (%) 0 (rabbit eye [1]; 0.5% topical formulation, −180 min (basal), 8 eyes): 100%
- Protein in aqueous humor, Mean ([2]; 0.5% topical formulation): 33.905 mg/mL
- Protein in aqueous humor ([2]; 0.5% topical formulation): 36.14 mg/mL and 39.10 mg/mL and 34.69 mg/mL and 26.10 mg/mL and 26.30 mg/mL and 28.16 mg/mL and 40.90 mg/mL and 39.85 mg/mL
- Pupillary diameter T2: −5 min (rabbit eye [3]; 0.5% topical formulation): 6.0 mm (3×) and 6.5 mm (5×)
- Pupillary diameter T3: +115 min (rabbit eye [3]; 0.5% topical formulation): 4.5 mm and 5.0 mm (2×) and 5.5 mm (2×) and 6.0 mm (3×)
- Pupillary diameter Δ(T3 − T1) (rabbit eye [3]; 0.5% topical formulation): −1.5 mm (2×) and −1.0 mm (3×) and 0.0 mm and −0.5 mm (2×)
- Pupillary diameter T1: −180 min (rabbit eye [3]; 0.5% topical formulation): 6.0 mm (3×) and 6.5 mm (5×)
- PGE2 in aqueous humor, statistical significance versus CTR ([4]; 0.5% topical formulation): statistically significant versus CTR
- PGE2 in aqueous humor, Mean ([4]; 0.5% topical formulation): 0.672 ng/mL
- PGE2 in aqueous humor ([4]; 0.5% topical formulation): ^2N/D and 0.23 ng/ml and 0.68 ng/ml and 1.10 ng/ml
- MPO Unit/g (Myeloperoxidase (MPO); 0.5% LE): 0.30 Unit/g and 0.51 Unit/g and 0.81 Unit/g and 0.60 Unit/g and 0.73 Unit/g and 1.01 Unit/g
- MPO activity in iris-ciliary body, Mean (Myeloperoxidase (MPO); 0.5% topical formulation): 0.661 MPO Unit/g
- PMN in aqueous humor, Mean (leukocytes (PMN); 0.5% topical formulation): 28.333 number/μl
- PMN in aqueous humor (leukocytes (PMN); 0.5% topical formulation): 40 number/μl (2×) and 20 number/μl (3×) and 30 number/μl

Compound: Cc1ccc2c(NC[C@](O)(CC(C)(C)c3cc(F)cc4c3OCC4)C(F)(F)F)cccc2n1 [BOL-30324 2-X]
- Day of Death (day euthanized or found dead) [5, 7]: 17
- Recorded Notes (mortality) [5, 7]: Euthanized due to severe diarrhea.

Compound: Cc1ccc2c(NC[C@](O)(CC(C)(C)c3cc(F)cc4c3OCC4)C(F)(F)F)cccc2n1 [BOL-303242 X]
- Day of Death (day euthanized or found dead) [5, 8]: 29
- Recorded Notes (mortality) [5, 8]: Found dead.
